ChEMBL document CHEMBL1127385, “Synthesis and diuretic activity of alkyl- and arylguanidine analogs of N,N'-dicyclohexyl-4-morpholinecarboxamidine in rats and dogs” (J Med Chem, 1994)

Key:
Rattus norvegicus [1] = test: Total electrolytic excretion of chlorine in urine of rats after peroral administration of 86.7 uM/Kg of drug; type: ADME, organism-based; conditions: in vivo, po
Canis familiaris [2] = test: Total electrolytic excretion of potassium in urine of dogs after intravenous administration of 26.2 uM/Kg of drug; type: ADME, organism-based, Canis lupus familiaris; conditions: dog, in vivo
Canis familiaris [3] = test: Total electrolytic excretion of potassium in urine of dogs after intravenous administration of 52.4 uM/Kg of drug; type: ADME, organism-based, Canis lupus familiaris; conditions: dog, in vivo
Canis familiaris [4] = test: Total electrolytic excretion of potassium in urine of dogs after intravenous administration of 7.85 uM/Kg of drug; type: ADME, organism-based, Canis lupus familiaris; conditions: dog, in vivo
Rattus norvegicus [5] = test: Total electrolytic excretion of chlorine in urine of rats after peroral administration of 28.9 uM/Kg of drug; type: ADME, organism-based; conditions: in vivo, po
Rattus norvegicus [6] = test: Total electrolytic excretion of chlorine in urine of rats after peroral administration of 289 uM/Kg of drug; type: ADME, organism-based; conditions: in vivo, po
Canis familiaris [7] = test: Total electrolytic excretion of sodium in urine of dogs after intravenous administration of 52.4 uM/Kg of drug; type: ADME, organism-based, Canis lupus familiaris; conditions: dog, in vivo
Rattus norvegicus [8] = test: Total electrolytic excretion of potassium in urine of rats after peroral administration of 86.7 uM/Kg of drug; type: ADME, organism-based; conditions: in vivo, po
Canis familiaris [9] = test: Total electrolytic excretion of chlorine in urine of dogs after intravenous administration of 26.2 uM/Kg of drug; type: ADME, organism-based, Canis lupus familiaris; conditions: dog, in vivo
Canis familiaris [10] = test: Total electrolytic excretion of chlorine in urine of dogs after intravenous administration of 52.4 uM/Kg of drug; type: ADME, organism-based, Canis lupus familiaris; conditions: dog, in vivo
Canis familiaris [11] = test: Total electrolytic excretion of chlorine in urine of dogs after intravenous administration of 7.85 uM/Kg of drug; type: ADME, organism-based, Canis lupus familiaris; conditions: dog, in vivo
Canis familiaris [12] = test: Total electrolytic excretion of sodium in urine of dogs after intravenous administration of 26.2 uM/Kg of drug; type: ADME, organism-based, Canis lupus familiaris; conditions: dog, in vivo
Canis familiaris [13] = test: Total electrolytic excretion of sodium in urine of dogs after intravenous administration of 7.85 uM/Kg of drug; type: ADME, organism-based, Canis lupus familiaris; conditions: dog, in vivo
Rattus norvegicus [14] = test: Total electrolytic excretion of potassium in urine of rats after peroral administration of 28.9 uM/Kg of drug; type: ADME, organism-based; conditions: in vivo, po
Rattus norvegicus [15] = test: Total electrolytic excretion of potassium in urine of rats after peroral administration of 289 uM/Kg of drug; type: ADME, organism-based; conditions: in vivo, po
Rattus norvegicus [16] = test: Total electrolytic excretion of sodium in urine of rats after peroral administration of 86.7 uM/Kg of drug; type: ADME, organism-based; conditions: in vivo, po
Rattus norvegicus [17] = test: Tested for the diuretic activity by measuring the urinary volume after peroral administering 86.7 uM/Kg of drug in rats; type: ADME, organism-based, Urine; conditions: in vivo, po
Rattus norvegicus [18] = test: Total electrolytic excretion of sodium in urine of rats after peroral administration of 28.9 uM/Kg of drug; type: ADME, organism-based; conditions: in vivo, po
Rattus norvegicus [19] = test: Total electrolytic excretion of sodium in urine of rats after peroral administration of 289 uM/Kg of drug; type: ADME, organism-based; conditions: in vivo, po
Canis familiaris [20] = test: Tested for the diuretic activity by measuring the urinary volume after intravenous administering 7.85 uM/Kg of drug in dogs; type: ADME, organism-based, Canis lupus familiaris, Urine; conditions: dog, in vivo
Canis familiaris [21] = test: Tested for the diuretic activity by measuring the urinary volume after intravenous administering 26.2 uM/Kg of drug in dogs; type: ADME, organism-based, Canis lupus familiaris, Urine; conditions: dog, in vivo
Canis familiaris [22] = test: Tested for the diuretic activity by measuring the urinary volume after intravenous administering 52.4 uM/Kg of drug in dogs; type: ADME, organism-based, Canis lupus familiaris, Urine; conditions: dog, in vivo
Rattus norvegicus [23] = test: Tested for the diuretic activity by measuring the urinary volume after peroral administering 28.9 uM/Kg of drug in rats; type: ADME, organism-based, Urine; conditions: in vivo, po
Rattus norvegicus [24] = test: Tested for the diuretic activity by measuring the urinary volume after peroral administering 289 uM/Kg of drug in rats; type: ADME, organism-based, Urine; conditions: in vivo, po
Rattus norvegicus [25] = test: Ratio of Total electrolytic excretion of sodium and potassium in urine of rats after peroral administration of 28.9 uM/Kg of drug; type: ADME, organism-based; conditions: in vivo, po
Rattus norvegicus [26] = test: Ratio of Total electrolytic excretion of sodium and potassium in urine of rats after peroral administration of 289 uM/Kg of drug; type: ADME, organism-based; conditions: in vivo, po
Rattus norvegicus [27] = test: Ratio of Total electrolytic excretion of sodium and potassium in urine of rats after peroral administration of 86.7 uM/Kg of drug; type: ADME, organism-based; conditions: in vivo, po
Rattus norvegicus [28] = test: Ratio of Total electrolytic excretion of sodium and potassium in urine of rats after intravenous administration of 26.2 uM/Kg of drug; type: ADME, organism-based; conditions: in vivo
Rattus norvegicus [29] = test: Ratio of Total electrolytic excretion of sodium and potassium in urine of rats after intravenous administration of 52.4 uM/Kg of drug; type: ADME, organism-based; conditions: in vivo
Canis familiaris [30] = test: Ratio of mean of 5 hr urinary excretion of Na+ and K+ from dogs at 7.85 umol/kg (iv); type: ADME, organism-based, Canis lupus familiaris, Urine; conditions: dog, in vivo
Rattus norvegicus [31] = test: Total electrolytic excretion of chlorine in urine of rats after peroral administration of 84.7 uM/Kg of drug; type: ADME, organism-based; conditions: in vivo, po
Canis familiaris [32] = test: Total electrolytic excretion of potassium in urine of dogs after intravenous administration of 8.47 uM/Kg of drug; type: ADME, organism-based, Canis lupus familiaris; conditions: dog, in vivo
Rattus norvegicus [33] = test: Total electrolytic excretion of chlorine in urine of rats after peroral administration of 28.22 uM/Kg of drug; type: ADME, organism-based; conditions: in vivo, po
Rattus norvegicus [34] = test: Total electrolytic excretion of chlorine in urine of rats after peroral administration of 282 uM/Kg of drug; type: ADME, organism-based; conditions: in vivo, po
Rattus norvegicus [35] = test: Total electrolytic excretion of potassium in urine of rats after peroral administration of 84.7 uM/Kg of drug; type: ADME, organism-based; conditions: in vivo, po
Canis familiaris [36] = test: Total electrolytic excretion of chlorine in urine of dogs after intravenous administration of 8.47 uM/Kg of drug; type: ADME, organism-based, Canis lupus familiaris; conditions: dog, in vivo
Rattus norvegicus [37] = test: Total electrolytic excretion of potassium in urine of rats after peroral administration of 28.22 uM/Kg of drug; type: ADME, organism-based; conditions: in vivo, po
Rattus norvegicus [38] = test: Total electrolytic excretion of potassium in urine of rats after peroral administration of 282 uM/Kg of drug; type: ADME, organism-based; conditions: in vivo, po
Rattus norvegicus [39] = test: Total electrolytic excretion of sodium in urine of rats after peroral administration of 84.7 uM/Kg of drug; type: ADME, organism-based; conditions: in vivo, po
Rattus norvegicus [40] = test: Tested for the diuretic activity by measuring the urinary volume after peroral administering 84.7 uM/Kg of drug in rats; type: ADME, organism-based, Urine; conditions: in vivo, po
Rattus norvegicus [41] = test: Total electrolytic excretion of sodium in urine of rats after peroral administration of 28.2 uM/Kg of drug; type: ADME, organism-based; conditions: in vivo, po
Rattus norvegicus [42] = test: Total electrolytic excretion of sodium in urine of rats after peroral administration of 282 uM/Kg of drug; type: ADME, organism-based; conditions: in vivo, po
Canis familiaris [43] = test: Tested for the diuretic activity by measuring the urinary volume after intravenous administering 8.47 uM/Kg of drug in dogs; type: ADME, organism-based, Canis lupus familiaris, Urine; conditions: dog, in vivo
Rattus norvegicus [44] = test: Tested for the diuretic activity by measuring the urinary volume after peroral administering 28.2 uM/Kg of drug in rats; type: ADME, organism-based, Urine; conditions: in vivo, po
Rattus norvegicus [45] = test: Tested for the diuretic activity by measuring the urinary volume after peroral administering 282 uM/Kg of drug in rats; type: ADME, organism-based, Urine; conditions: in vivo, po
Rattus norvegicus [46] = test: Ratio of Total electrolytic excretion of sodium and potassium in urine of rats after peroral administration of 28.2 uM/Kg of drug; type: ADME, organism-based; conditions: in vivo, po
Rattus norvegicus [47] = test: Ratio of Total electrolytic excretion of sodium and potassium in urine of rats after peroral administration of 282 uM/Kg of drug; type: ADME, organism-based; conditions: in vivo, po
Rattus norvegicus [48] = test: Ratio of Total electrolytic excretion of sodium and potassium in urine of rats after peroral administration of 84.7 uM/Kg of drug; type: ADME, organism-based; conditions: in vivo, po
Rattus norvegicus [49] = test: Ratio of Total electrolytic excretion of sodium and potassium in urine of rats after intravenous administration of 8.47 uM/Kg of drug; type: ADME, organism-based; conditions: in vivo
Canis familiaris [50] = test: Total electrolytic excretion of sodium in urine of dogs after intravenous administration of 8.47 uM/Kg of drug; type: ADME, organism-based, Canis lupus familiaris; conditions: dog, in vivo

C1CCC(/N=C(\NC23CC4CC(CC(C4)C2)C3)N2CCOCC2)CC1
Excretion Cl- (Rattus norvegicus [1]): 1.54 m equiv | Excretion K+ (Canis familiaris [2]): 2.3 m equiv | Excretion K+ (Canis familiaris [3]): 3.3 m equiv | Excretion K+ (Canis familiaris [4]): 1.4 m equiv | Excretion Cl- (Rattus norvegicus [5]): 0.97 m equiv | Excretion Cl- (Rattus norvegicus [6]): 1.82 m equiv | Excretion Na+ (Canis familiaris [7]): 36 m equiv | Excretion K+ (Rattus norvegicus [8]): 0.24 m equiv | Excretion Cl- (Canis familiaris [9]): 22.4 m equiv | Excretion Cl- (Canis familiaris [10]): 28.8 m equiv | Excretion Cl- (Canis familiaris [11]): 7 m equiv | Excretion Na+ (Canis familiaris [12]): 27.9 m equiv | Excretion Na+ (Canis familiaris [13]): 8.4 m equiv | Excretion K+ (Rattus norvegicus [14]): 0.24 m equiv | Excretion K+ (Rattus norvegicus [15]): 0.24 m equiv | Excretion Na+ (Rattus norvegicus [16]): 1.58 m equiv | V (Rattus norvegicus [17]): 9.9 mL | Excretion Na+ (Rattus norvegicus [18]): 1 m equiv | Excretion Na+ (Rattus norvegicus [19]): 1.86 m equiv | V (Canis familiaris [20]): 62 mL | V (Canis familiaris [21]): 197 mL | V (Canis familiaris [22]): 218 mL | V (Rattus norvegicus [23]): 5.5 mL | V (Rattus norvegicus [24]): 11.3 mL | Ratio (Rattus norvegicus [25]): 4.2 | Ratio (Rattus norvegicus [26]): 7.9 | Ratio (Rattus norvegicus [27]): 6.6 | Ratio (Rattus norvegicus [28]): 15.3 | Ratio (Rattus norvegicus [29]): 12 | Ratio (Canis familiaris [30]): 8.8

Fc1ccc(/N=C(/Nc2ccc(F)cc2)N2CCOCC2)cc1
Excretion Cl- (Rattus norvegicus [31]): 1.82 m equiv | Excretion K+ (Canis familiaris [32]): 1.1 m equiv | Excretion Cl- (Rattus norvegicus [33]): 1.32 m equiv | Excretion Cl- (Rattus norvegicus [34]): 1.7 m equiv | Excretion K+ (Rattus norvegicus [35]): 0.48 m equiv | Excretion Cl- (Canis familiaris [36]): 5.7 m equiv | Excretion K+ (Rattus norvegicus [37]): 0.39 m equiv | Excretion K+ (Rattus norvegicus [38]): 0.24 m equiv | Excretion Na+ (Rattus norvegicus [39]): 1.9 m equiv | V (Rattus norvegicus [40]): 13.6 mL | Excretion Na+ (Rattus norvegicus [41]): 1.29 m equiv | Excretion Na+ (Rattus norvegicus [42]): 2.05 m equiv | V (Canis familiaris [43]): 58 mL | V (Rattus norvegicus [44]): 9.2 mL | V (Rattus norvegicus [45]): 16.2 mL | Ratio (Rattus norvegicus [46]): 3.3 | Ratio (Rattus norvegicus [47]): 8.5 | Ratio (Rattus norvegicus [48]): 4 | Ratio (Rattus norvegicus [49]): 5.7 | Excretion Na+ (Canis familiaris [50]): 6 m equiv
